Here are results for six compounds from ChEMBL document CHEMBL5096205, “Lysine Covalent Antagonists of Melanoma Inhibitors of Apoptosis Protein” (J Med Chem, 2021).

For assay [1], the target named is E3 ubiquitin-protein ligase XIAP (Homo sapiens, UniProt P98170). Briefly: Antagonist activity at N-terminal His-tagged XIAP-BIR3 domain (253 to 347 residues)(unknown origin) expressed in Escherichia coli BL21 using AVPIAQKSEK-biotinylated peptide as substrate incubated for 2 hrs by DELFIA assay.
Assay [2] has as its target Baculoviral IAP repeat-containing protein 3 (Homo sapiens, UniProt Q13489). Briefly: Antagonist activity at N-terminal His-tagged cIAP2-BIR3 domain (unknown origin) expressed in Escherichia coli BL21 using AVPIAQKSEK-biotinylated peptide as substrate incubated for 2 hrs by DELFIA assay.
Assay [3] deals with SK-MEL-28. Briefly: Induction of apoptosis in human SK-MEL-28 cells assessed as increase in caspase-3/7 activity at 0.1 to 10 uM in presence of 0.1 ng/mL TNFlpha by IncuCyteS3 caspase-3/7 fluorescence-based apoptosis assay. It is filed as functional, cell-based. Conditions: dose 0.1-10 µM, time <= 48.0 hrs, TDE = time-dependent effect.
For assay [4], the target named is T1, Baculoviral IAP repeat-containing protein 7 (Homo sapiens, UniProt Q96CA5).
T1 sequence (Q96CA5 whole entry): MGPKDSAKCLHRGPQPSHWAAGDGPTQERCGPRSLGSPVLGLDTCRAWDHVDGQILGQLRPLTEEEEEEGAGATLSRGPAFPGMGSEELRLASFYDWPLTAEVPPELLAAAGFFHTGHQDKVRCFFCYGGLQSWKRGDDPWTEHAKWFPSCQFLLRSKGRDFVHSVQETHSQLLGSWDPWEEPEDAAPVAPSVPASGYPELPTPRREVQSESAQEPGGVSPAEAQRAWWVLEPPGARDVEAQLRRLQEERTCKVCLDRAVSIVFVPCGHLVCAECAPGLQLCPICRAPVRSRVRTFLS
Briefly: Antagonist activity at N-terminal His-tagged wild type ML-IAP BIR domain (63 to 179 residues)(unknown origin) expressed in Escherichia coli BL21 using AVPIAQKSEK-biotinylated peptide as substrate preincubated for 2 hrs with protein followed by substrate addition measured after 2 hrs by DELFIA assay.

For assay [5], the target named is T2, Baculoviral IAP repeat-containing protein 7 (Homo sapiens) (UniProt Q96CA5).
T2 sequence (whole entry): T1 sequence (Q96CA5 whole entry)
Conditions: dose 20.0 µM, time 150.0 min.

The species named for the next assay is Homo sapiens. Briefly: Binding affinity to N-terminal His-tagged ML-IAP K135A mutant (63 to 179 residues) (unknown origin) expressed in Escherichia coli BL21 assessed as change in melting temperature at 20 uM incubated for 2 hrs followed by heating at 40 to 70 degree C for 30 mins by SYPRO orange dye based thermal shift assay. Conditions: time 150.0 min.
Assay [6] deals with T1, Baculoviral IAP repeat-containing protein 7. Briefly: Antagonist activity at N-terminal His-tagged wild type ML-IAP BIR domain (63 to 179 residues) (unknown origin) expressed in Escherichia coli BL21 using AVPIAQKSEK-biotinylated peptide as substrate incubated for 2 hrs by DELFIA assay.
The test system of assay [7] is SK-MEL-28. Briefly: Induction of apoptosis in human SK-MEL-28 cells assessed as increase in caspase-3/7 activity measured up to 48 hrs in presence of 0.1 ng/mL TNFlpha by IncuCyteS3 caspase-3/7 fluorescence-based apoptosis assay. The class given is functional, cell-based. The note with it: dose 0.1-10 µM, DDE = dose-dependent effect.
In assay [8] the target is Baculoviral IAP repeat-containing protein 2 (Homo sapiens, UniProt Q13490). Briefly: Antagonist activity at N-terminal His-tagged cIAP1-BIR3 domain (unknown origin) expressed in Escherichia coli BL21 using AVPIAQKSEK-biotinylated peptide as substrate incubated for 2 hrs by DELFIA assay.

The structures appear in SMILES notation. pIC50: −log10 of the molar value.

Chain of E3 ubiquitin-protein ligase XIAP (P98170 whole entry, the tested form may be a part): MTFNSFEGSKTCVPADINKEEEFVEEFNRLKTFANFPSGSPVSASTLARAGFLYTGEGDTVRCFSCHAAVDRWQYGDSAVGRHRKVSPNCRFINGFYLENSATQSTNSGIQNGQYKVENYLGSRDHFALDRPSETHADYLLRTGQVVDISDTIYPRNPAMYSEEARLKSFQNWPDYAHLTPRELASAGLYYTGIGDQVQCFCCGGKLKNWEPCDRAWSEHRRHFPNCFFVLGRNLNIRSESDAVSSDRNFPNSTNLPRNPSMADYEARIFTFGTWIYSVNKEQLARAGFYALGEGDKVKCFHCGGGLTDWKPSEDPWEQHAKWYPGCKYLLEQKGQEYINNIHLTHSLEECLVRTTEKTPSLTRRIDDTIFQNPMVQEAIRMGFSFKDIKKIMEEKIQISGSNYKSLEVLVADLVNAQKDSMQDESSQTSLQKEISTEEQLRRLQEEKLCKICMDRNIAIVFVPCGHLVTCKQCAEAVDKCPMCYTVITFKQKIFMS
Chain of Baculoviral IAP repeat-containing protein 3 (Q13489 whole entry, the tested form may be a part): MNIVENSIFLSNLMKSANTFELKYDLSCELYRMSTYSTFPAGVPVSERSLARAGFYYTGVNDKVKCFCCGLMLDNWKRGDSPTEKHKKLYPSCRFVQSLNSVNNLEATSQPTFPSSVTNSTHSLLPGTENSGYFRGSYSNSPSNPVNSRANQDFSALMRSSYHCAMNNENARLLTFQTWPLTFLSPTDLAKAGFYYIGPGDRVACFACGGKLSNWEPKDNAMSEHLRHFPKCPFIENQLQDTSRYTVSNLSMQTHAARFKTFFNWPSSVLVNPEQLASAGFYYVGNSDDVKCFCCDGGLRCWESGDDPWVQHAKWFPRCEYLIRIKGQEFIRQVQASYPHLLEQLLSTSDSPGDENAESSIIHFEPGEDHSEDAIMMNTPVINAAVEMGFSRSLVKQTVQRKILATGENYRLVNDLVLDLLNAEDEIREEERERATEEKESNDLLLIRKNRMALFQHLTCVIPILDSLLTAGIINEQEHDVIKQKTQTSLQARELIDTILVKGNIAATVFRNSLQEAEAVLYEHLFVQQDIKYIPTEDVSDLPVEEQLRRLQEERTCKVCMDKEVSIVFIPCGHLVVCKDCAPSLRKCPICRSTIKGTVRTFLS
Chain of Baculoviral IAP repeat-containing protein 2 (Q13490 whole entry, the tested form may be a part): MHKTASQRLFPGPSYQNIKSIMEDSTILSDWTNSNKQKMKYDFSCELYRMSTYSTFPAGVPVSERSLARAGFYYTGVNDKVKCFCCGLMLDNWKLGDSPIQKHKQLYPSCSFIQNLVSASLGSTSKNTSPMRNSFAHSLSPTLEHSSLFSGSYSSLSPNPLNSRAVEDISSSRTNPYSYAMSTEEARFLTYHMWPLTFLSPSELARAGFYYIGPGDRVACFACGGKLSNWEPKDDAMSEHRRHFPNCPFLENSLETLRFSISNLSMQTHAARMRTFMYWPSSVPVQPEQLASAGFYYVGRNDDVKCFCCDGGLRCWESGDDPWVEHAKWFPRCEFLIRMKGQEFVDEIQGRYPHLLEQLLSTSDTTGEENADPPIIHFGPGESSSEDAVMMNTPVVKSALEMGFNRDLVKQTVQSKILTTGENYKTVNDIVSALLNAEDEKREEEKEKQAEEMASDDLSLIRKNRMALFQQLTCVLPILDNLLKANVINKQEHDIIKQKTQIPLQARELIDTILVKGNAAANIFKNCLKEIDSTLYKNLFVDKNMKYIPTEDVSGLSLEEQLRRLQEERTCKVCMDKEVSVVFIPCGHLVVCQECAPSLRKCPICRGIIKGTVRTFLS

One may read the pIC50 as the IC50 on a negative log10 scale, so that one unit is a factor of ten. A lower pIC50 goes with a large IC50. On to `CN[C@@H](C)C(=O)N[C@@H](CNC(=O)c1cc(S(=O)(=O)F)ccc1OC)C(=O)N1CCCC[C@H]1C(=O)N[C@@H](Cc1ccccc1)C(N)=O`, for which the values for the pIC50 in assay [1] and in assay [2] were less than 5.60 and less than 5.70, respectively.
One may read the ΔTm as the shift of the melting midpoint relative to a reference. With `CN[C@@H](C)C(=O)N[C@H](C(=O)N1CCC[C@H]1c1nc(C(=O)c2ccc(F)cc2)cs1)C1CCCCC1` [LCL-161], the figures for the Activity result with SK-MEL-28 [3] and in the assay on SK-MEL-28 [7] were “Tde” and “Dde”, respectively. Besides, the pIC50 in [4] was 7.82; in assay [6] it was 8.05. The ΔTm turned out to be 12.6 °C in assay [5] and 14.5 °C in the assay listed under Homo sapiens.
Turning to `CN[C@@H](C)C(=O)N[C@@H](CNC(=O)c1cc(S(=O)(=O)F)ccc1OC)C(=O)N1CCC[C@H]1C(=O)N[C@@H]1CCc2c(F)cccc21`, the pIC50 in assay [1] was less than 6.00.
`CN[C@@H](C)C(=O)N[C@@H](CNC(=O)c1cc(S(=O)(=O)O)ccc1OC)C(=O)N1CCC[C@H]1C(=O)N[C@@H]1CCc2ccccc21`: in the assay filed under Homo sapiens, the shift in melting temperature (ΔTm) stood at 4.7 °C.
`CN[C@@H](C)C(=O)N[C@@H](CNC(=O)c1cccc(S(=O)(=O)F)c1)C(=O)N1CCC[C@H]1C(=O)NC1Cc2ccccc2C1`: the pIC50 was less than 5.60 in assay [1], less than 5.82 in assay [2], less than 6.00 in assay [8] and less than 6.00 in assay [6].
`CN[C@@H](C)C(=O)N[C@@H](CNC(=O)c1cc(S(=O)(=O)F)ccc1OC)C(=O)N1CCC[C@H]1C(=O)N[C@@H]1CCc2ccccc21`: the Activity entry in the assay on SK-MEL-28 [3] was “Tde”; in the assay on SK-MEL-28 [7] it was “Dde”. Also, the ΔTm in the assay filed under Homo sapiens amounted to 6.2 °C.
